Test system: rabbit skeletal myofibrils (approximately 90% fast fibers)
Assay: Activation of fast skeletal myofibrils (PUMA coupled-enzyme ATPase assay at pCa25)
Assay type: biochemical
Conditions: concentration at which the compound increased the enzymatic activity by 40%; calcium at pCa25; PM12 buffer pH 6.8
How it was run: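 Detergent-washed rabbit psoas myofibrils tested at calcium giving 25% of maximal rate (pCa25). ATPase activity tracked by pyruvate kinase/lactate dehydrogenase coupling, NADH oxidation read as absorbance at 340 nm, in PM12 buffer (12 mM Pipes, 2 mM MgCl2, 1 mM DTT, pH 6.8).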

Row | Structure (SMILES) | Mean AC1.4
1 | Cc1nc(NC[C@]2(c3ncccc3F)C[C@H](F)C2)ncc1-c1ccc(C#N)cc1 [4-[2-({[3-fluoro-1-(3-fluoro(2-pyridyl))cyclobutyl]methyl}amino)-4-methylpyrimidin-5-yl]benzenecarbonitrile] | D (D=>20 uM)
2 | CC(C)(Nc1ncc(-c2ncno2)cn1)c1ncccc1Cl [[1-(3-chloro(2-pyridyl))-isopropyl](5-(1,2,4-oxadiazol-5-yl)pyrimidin-2-yl)amine] | D (D=>20 uM)
3 | NC(=O)c1nc2cnc(NCC3(c4ncccc4F)CCC3)nc2s1 [5-({[(3-fluoro-2-pyridyl)cyclobutyl]methyl}amino)-1,3-thiazolo[5,4-d]pyrimidine-2-carboxamide] | C (C=10-20 uM)
4 | O=C(Nc1nccs1)c1cnc(NCC2(c3ncccc3F)CCC2)nc1 [[2-({[(3-fluoro(2-pyridyl))cyclobutyl]methyl}amino)pyrimidin-5-yl]-N-(1,3-thiazol-2-yl)carboxamide] | B (B=1-10 uM)
5 | COc1ncc(-c2cnc(NC[C@]3(c4ncccc4F)C[C@H](F)C3)nc2)c(OC)n1 [[5-(2,4-dimethoxypyrimidin-5-yl)pyrimidin-2-yl]{[3-fluoro-1-(3-fluoro(2-pyridyl))cyclobutyl]methyl}amine] | D (D=>20 uM)
6 | CC(C)[C@@H](Nc1ncc(-c2ncc(C(N)=O)s2)cn1)c1ncccc1Cl [2-(2-{[(1R)-1-(3-chloro(2-pyridyl))-2-methylpropyl]amino}pyrimidin-5-yl)-1,3-thazole-5-carboxamide] | D (D=>20 uM)
7 | CC(C)(CNc1ncc(-c2cncc(C#N)c2)cn1)c1ccc(F)cc1 [5-(2-{[2-(4-fluorophenyl)-2-methylpropyl]amino}pyrimidin-5-yl)pyridine-3-carbonitrile] | B (B=1-10 uM)
8 | CC(C)(Nc1ncc(-c2cnc(C(N)=O)s2)cn1)c1ncccc1Cl [5-(2-{[1-(3-chloro(2-pyridyl))-isopropyl]amino}pyrimidin-5-yl)-1,3-thiazole-2-carboxamide] | B (B=1-10 uM)
9 | NC(=O)c1cnc(-c2cnc(NCC3(c4ccccn4)CCC3)nc2)s1 [2-(2-{[(2-pyridylcyclobutyl)methyl]amino}pyrimidin-5-yl)-1,3-thlazole-5-carboxamide] | B (B=1-10 uM)
10 | CC(C)(CNc1ncc2c(n1)CCNC2)c1ccc(F)cc1 [[2-(4-fluorophenyl)-2-methylpropyl]-5,6,7,8-tetrahydropyridino[4,3-d]pyrimidin-2-ylamine] | D (D=>20 uM)
11 | NC(=O)Cc1cnc(-c2cnc(NC[C@]3(c4ncccc4Cl)C[C@H](F)C3)nc2)s1 [2-{2-[2-({[1-(3-chloro(2-pyridyl))-3-fluorocyclobutyl]methyl}amino)pyrimidin-5-yl]-1,3-thiazol-5-yl}acetamide] | B (B=1-10 uM)
12 | O=C(Nc1ccn[nH]1)c1cnc(NCC2(c3ncccc3F)CCC2)nc1 [[2-({[(3-fluoro(2-pyridyl))cyclobutyl]methyl}amino)pyrimidin-5-yl]-N-pyrazol-5-ylcarboxamide] | C (C=10-20 uM)
13 | Nc1ccnn1C(=O)c1cnc(NCC2(c3ncccc3F)CCC2)nc1 [5-aminopyrazolyl 2-({[(3-fluoro(2-pyridyl))cyclobutyl]methyl}amino) pyrimidin-5-yl ketone] | C (C=10-20 uM)
14 | CC(C)(Nc1ncc(-c2ccnc(C(N)=O)c2)cn1)c1ncccc1Cl [4-(2-{[1-(3-chloro(2-pyridyl))-isopropyl]amino}pyrimidin-5-yl)pyridine-2-carboxamide] | B (B=1-10 uM)
15 | CC(C)(C)Nc1ncc(-c2ccc3[nH]nc(N)c3c2)cn1 [[5-(3-amino(1H-indazol-5-yl))pyrimidin-2-yl]tert-butyl)amine] | B (B=1-10 uM)
16 | CC(C)(CNc1ncc(-c2nccc(C(N)=O)n2)cn1)c1ncccc1F [2-(2-{[2-(3-fluoro(2-pyridyl))-2-methylpropyl]amino)pyrimidin-5-yl)pyrimidine-4-carboxamide] | C (C=10-20 uM)
17 | CC(=O)NCc1ccc(-c2cnc(NC(C)(C)c3ncccc3F)nc2)cc1 [N-{[4-(2-{[1-(3-fluoro(2-pyridyl))-isopropyl}amino}pyrimidin-5-yl)phenyl]methyl}acetamide] | D (D=>20 uM)
18 | Fc1cccnc1C1(Nc2ncc(-c3ccc4[nH]ncc4c3)cn2)CCC1 [(5-(1H-indazol-5-yl)pyrimidin-2-yl)[(3-fluoro(2-pyridyl))cyclobutyl]amine] | B (B=1-10 uM)
19 | COc1ccnc(NC[C@]2(c3ncccc3F)C[C@H](F)C2)n1 [{[3-fluoro-1-(3-fluoro(2-pyridyl))cyclobutyl]methyl}(4-methoxypyrimidin-2-yl)amine] | D (D=>20 uM)

Row | Structure (SMILES) | Mean AC1.4
20 | Fc1cccnc1C1(Nc2nccc(C(F)(F)F)n2)CCC1 [[(3-fluoro(2-pyridyl))cyclobutyl][4-(trifluoromethyl)pyrimidin-2-yl]amine] | D (D=>20 uM)
21 | CC(C)(CNc1ncc(-c2cccc(C(N)=O)c2)cn1)c1ncccc1Cl [3-(2-{[2-(3-chloro(2-pyridyl))-2-methylpropyl]amino}pyrimidin-5-yl)benzamide] | A (A=<1 uM)
22 | CC(C)(Nc1ncc(-c2ccc3[nH]ncc3c2)cn1)c1ncccc1Cl [(5-(1H-indazol-5-yl)]pyrimidin-2-yl)[1-(3-chloro(2-pyridyl))-isopropyl]amine] | A (A=<1 uM)
23 | CC(C)(Nc1ncc(-c2cccc(C(N)=O)c2)cn1)c1ncccc1S(C)(=O)=O [3-[2-({1-methyl-1-[3-(methylsulfonyl)(2-pyridyl)]ethyl}amino)pyrimidin-5-yl]benzamide] | D (D=>20 uM)
24 | CCOC(=O)c1cc(-c2cnc(NC(C)(C)c3ncccc3Cl)nc2)no1 [ethyl 3-(2-{[1-(3-chloro(2-pyridyl))-isopropyl]amino}pyrimidin-5-yl)isoxazole-5-carboxylate] | D (D=>20 uM)
25 | CC(C)(Nc1ncc(-c2ncc(CNC(=O)c3cnc[nH]3)s2)cn1)c1ncccc1F [N-{[2-(2-{[1-(3-fluoro(2-pyridyl))-isopropyl]amino}pyrimidin-5-yl)(1,3-thiazol-5-yl)]methyl}imidazol-5-ylcarboxamide] | D (D=>20 uM)
26 | Cc1nc(NC[C@]2(c3ncccc3F)C[C@H](F)C2)ncc1-c1cccc(CC(N)=O)c1 [2-{3-[2-({[3-fluoro-1-(3-fluoro(2-pyridyl))cyclobutyl]methyl}amino)-4-methylpyrimidin-5-yl]phenyl}acetamide] | C (C=10-20 uM)
27 | Cn1nc(C(N)=O)cc1-c1cnc(NC(C)(C)c2ncccc2Cl)nc1 [5-(2-{[1-(3-chloro(2-pyridyl))-isopropyl}amino}pyrimidin-5-yl)-1-methylpyrazole-3-carboxamide] | D (D=>20 uM)
28 | NC(=O)c1ccc(F)c(-c2cnc(N[C@]3(c4ncccc4Cl)C[C@H](F)C3)nc2)c1 [3-(2-{[1-(3-chloro(2-pyridyl))-3-fluorocyclobutyl]amino}pyrimidin-5-yl)-4-fluorobenzamide] | A (A=<1 uM)
29 | CC(C)(Nc1ncc(-c2cccc(C(N)=O)c2)cn1)c1cccc(OC(F)F)n1 [3-[2-({1-[6-(difluoromethoxy)(2-pyridyl)]-isopropyl}amino)pyrimidin-5-yl]benzamide] | A (A=<1 uM)
30 | NC(=O)c1ccnc(-c2cnc(NC[C@]3(c4ncccc4F)C[C@H](F)C3)nc2)c1 [2-[2-({[3-fluoro-1-(3-fluoro(2-pyridyl))cyclobutyl]methyl}amino)pyrimidin-5-yl]pyridine-4-carboxamide] | B (B=1-10 uM)
31 | CC(C)(Nc1ncc(-n2ccc(C(N)=O)c2)cn1)c1ncccc1Cl [1-(2-{[1-(3-chloro(2-pyridyl))-isopropyl]amino}pyrimidin-5-yl)pyrrole-3-carboxamide] | B (B=1-10 uM)
32 | O=C(NC1CC(O)C1)c1cccc(-c2cnc(NC[C@]3(c4ncccc4F)C[C@H](F)C3)nc2)c1 (some centres unmarked) [{3-[2-(([3-fluoro-1-(3-fluoro(2-pyridyl))cyclobutyl]methyl}amino)pyrimidin-5-yl]phenyl}-N-(3-hydroxycyclobutyl)carboxamide] | B (B=1-10 uM)
33 | CC(C)(Nc1ncc(-c2ncc(CN)s2)cn1)c1ncccc1F [{5-[5-(aminomethyl)(1,3-thiazol-2-yl)]pyrimidin-2-yl}[1-(3-fluoro(2-pyridyl))-isopropyl]amine] | D (D=>20 uM)
34 | Cc1cc(NC2CCCCC2)nc(N[C@H](C)c2ccccc2)n1 [((1R)-1-phenylethyl)[4-(cyclohexylamino)-6-methylpyrimidin-2-yl]amine] | B (B=1-10 uM)
35 | Cc1nc(NC[C@]2(c3ncccc3F)C[C@H](F)C2)ncc1-c1ccc(CC(N)=O)cc1 [2-{4-[2-({[3-fluoro-1-(3-fluoro(2-pyridyl))cyclobutyl]methyl}amino)-4-methylpyrimidin-5-yl]phenyl}acetamide] | B (B=1-10 uM)
36 | Nc1nc(NC[C@]2(c3ncccc3F)C[C@H](F)C2)ncc1-c1ccccc1 [(4-amino-5-phenylpyrimidin-2-yl){[3-fluoro-1-(3-fluoro(2-pyridyl))cyclobutyl)]methyl} amine] | B (B=1-10 uM)
37 | N#Cc1cccc(-c2cnc(NCC3(c4ncccc4Cl)CCC3)nc2)c1 [3-[2-({[(3-chloro-2-pyridyl)cyclobutyl]methyl}amino)pyrimidin-5-yl]benzenecarbonitrile] | A (A=<1 uM)
38 | CC(C)(Nc1ncc(-c2ncc(CNC(=O)c3c[nH]c(O)n3)s2)cn1)c1ncccc1Cl [N-{[2-(2-{[1-(3-chloro(2-pyridyl))-isopropyl]amino}pyrimidin-5-yl)(1,3-thazol-5-yl)]methyl}(2-hydroxyimidazol-4-yl)carboxamide] | B (B=1-10 uM)

Source: US11369565B2, “Amino-pyrimidine skeletal muscle modulators” (Cytokinetics, Inc., priority 2010, dated 2022)
